Assay results taken from ChEMBL document CHEMBL1201861, “Genomics of Drug Sensitity in Cancer screening data, Wellcome Trust Sanger Institute”.
pIC50: −log10 of the molar value.

Columns and labels:
EHEB = assay: cells; format: functional, cell-based; settings: Homo sapiens
Description: SANGER: Inhibition of human EHEB cell growth in a cell viability assay.

EW-12 = assay: SANGER: Inhibition of human EW-12 cell growth in a cell viability assay.; format: functional, cell-based; settings: Homo sapiens, EW-12
IM-9 = assay: SANGER: Inhibition of human IM-9 cell growth in a cell viability assay.; format: functional, cell-based; settings: Homo sapiens, IM-9
IMR-5 = assay: cells; format: functional, cell-based, Homo sapiens; settings: Homo sapiens, IMR-5
Description: SANGER: Inhibition of human IMR-5 cell growth in a cell viability assay.

Kasumi 1 = assay: cells; format: functional, cell-based, Homo sapiens; settings: Homo sapiens, Kasumi 1
Description: SANGER: Inhibition of human KASUMI-1 cell growth in a cell viability assay.

LC-1F = assay: cells; format: functional, cell-based, Homo sapiens; settings: Homo sapiens, LC-1F
Description: SANGER: Inhibition of human LC-1F cell growth in a cell viability assay.

MDA-MB-134-VI = assay: cells; format: functional, cell-based, Homo sapiens; settings: Homo sapiens, MDA-MB-134-VI
Description: SANGER: Inhibition of human MDA-MB-134-VI cell growth in a cell viability assay.

NCI-H128 = assay: SANGER: Inhibition of human NCI-H128 cell growth in a cell viability assay.; format: functional, cell-based; settings: Homo sapiens, NCI-H128
NCI-H1882 = assay: cells; format: functional, cell-based, Homo sapiens; settings: Homo sapiens, NCI-H1882
Description: SANGER: Inhibition of human NCI-H1882 cell growth in a cell viability assay.

NCI-H2107 = assay: SANGER: Inhibition of human NCI-H2107 cell growth in a cell viability assay.; format: functional, cell-based
SIMA = assay: cells; format: functional, cell-based, Homo sapiens; settings: Homo sapiens, SIMA
Description: SANGER: Inhibition of human SIMA cell growth in a cell viability assay.

SR = assay: cells; format: functional, cell-based, Homo sapiens; settings: Homo sapiens, SR
Description: SANGER: Inhibition of human SR cell growth in a cell viability assay.

U-698-M = assay: cells; format: functional, cell-based, Homo sapiens; settings: Homo sapiens, U-698-M
Description: SANGER: Inhibition of human U-698-M cell growth in a cell viability assay.

CESS = assay: SANGER: Inhibition of human CESS cell growth in a cell viability assay.; format: functional, cell-based; settings: Homo sapiens, CESS
CMK = assay: cells; format: functional, cell-based, Homo sapiens; settings: Homo sapiens, CMK
Description: SANGER: Inhibition of human CMK cell growth in a cell viability assay.

Capan-2 = assay: cells; format: functional, cell-based; settings: Homo sapiens
Description: SANGER: Inhibition of human Capan-2 cell growth in a cell viability assay.

D-423MG = assay: cells; format: functional, cell-based; settings: Homo sapiens
Description: SANGER: Inhibition of human D-423MG cell growth in a cell viability assay.

EGI-1 = assay: cells; format: functional, cell-based; settings: Homo sapiens
Description: SANGER: Inhibition of human EGI-1 cell growth in a cell viability assay.

EPLC-272H = assay: cells; format: functional, cell-based; settings: Homo sapiens
Description: SANGER: Inhibition of human EPLC-272H cell growth in a cell viability assay.

GCT = assay: cells; format: functional, cell-based; settings: Homo sapiens
Description: SANGER: Inhibition of human GCT cell growth in a cell viability assay.

H-EMC-SS = assay: cells; format: functional, cell-based; settings: Homo sapiens
Description: SANGER: Inhibition of human H-EMC-SS cell growth in a cell viability assay.

HCC70 = assay: cells; format: functional, cell-based; settings: Homo sapiens
Description: SANGER: Inhibition of human HCC70 cell growth in a cell viability assay.

HN = assay: cells; format: functional, cell-based; settings: Homo sapiens
Description: SANGER: Inhibition of human HN cell growth in a cell viability assay.

KNS-62 = assay: cells; format: functional, cell-based; settings: Homo sapiens
Description: SANGER: Inhibition of human KNS-62 cell growth in a cell viability assay.

KP-4 = assay: cells; format: functional, cell-based; settings: Homo sapiens
Description: SANGER: Inhibition of human KP-4 cell growth in a cell viability assay.

LU-135 = assay: cells; format: functional, cell-based; settings: Homo sapiens
Description: SANGER: Inhibition of human LU-135 cell growth in a cell viability assay.

LoVo = assay: cells; format: functional, cell-based; settings: Homo sapiens
Description: SANGER: Inhibition of human LoVo cell growth in a cell viability assay.

M059J = assay: cells; format: functional, cell-based; settings: Homo sapiens
Description: SANGER: Inhibition of human M059J cell growth in a cell viability assay.

MKN-45 = assay: cells; format: functional, cell-based; settings: Homo sapiens
Description: SANGER: Inhibition of human MKN45 cell growth in a cell viability assay.

NB12 = assay: cells; format: functional, cell-based; settings: Homo sapiens
Description: SANGER: Inhibition of human NB12 cell growth in a cell viability assay.

NCI-H1563 = assay: cells; format: functional, cell-based; settings: Homo sapiens
Description: SANGER: Inhibition of human NCI-H1563 cell growth in a cell viability assay.

NCI-H1623 = assay: cells; format: functional, cell-based; settings: Homo sapiens
Description: SANGER: Inhibition of human NCI-H1623 cell growth in a cell viability assay.

NCI-H1666 = assay: cells; format: functional, cell-based; settings: Homo sapiens
Description: SANGER: Inhibition of human NCI-H1666 cell growth in a cell viability assay.

NCI-H2030 = assay: cells; format: functional, cell-based; settings: Homo sapiens
Description: SANGER: Inhibition of human NCI-H2030 cell growth in a cell viability assay.

NCI-H2342 = assay: cells; format: functional, cell-based; settings: Homo sapiens
Description: SANGER: Inhibition of human NCI-H2342 cell growth in a cell viability assay.

NCI-H28 = assay: cells; format: functional, cell-based; settings: Homo sapiens
Description: SANGER: Inhibition of human NCI-H28 cell growth in a cell viability assay.

OC-314 = assay: cells; format: functional, cell-based; settings: Homo sapiens
Description: SANGER: Inhibition of human OC-314 cell growth in a cell viability assay.

OE19 = assay: cells; format: functional, cell-based; settings: Homo sapiens
Description: SANGER: Inhibition of human OE19 cell growth in a cell viability assay.

RERF-LC-MS = assay: cells; format: functional, cell-based; settings: Homo sapiens
Description: SANGER: Inhibition of human RERF-LC-MS cell growth in a cell viability assay.

RH-18 = assay: cells; format: functional, cell-based; settings: Homo sapiens, Rh18
Description: SANGER: Inhibition of human RH-18 cell growth in a cell viability assay.

SK-HEP1 = assay: cells; format: functional, cell-based, SK-HEP-1; settings: Homo sapiens
Description: SANGER: Inhibition of human SK-HEP-1 cell growth in a cell viability assay.

SNU-387 = assay: cells; format: functional, cell-based; settings: Homo sapiens
Description: SANGER: Inhibition of human SNU-387 cell growth in a cell viability assay.

SNU-449 = assay: cells; format: functional, cell-based; settings: Homo sapiens
Description: SANGER: Inhibition of human SNU-449 cell growth in a cell viability assay.

SW1088 = assay: cells; format: functional, cell-based; settings: Homo sapiens
Description: SANGER: Inhibition of human SW1088 cell growth in a cell viability assay.

T84 = assay: cells; format: functional, cell-based; settings: Homo sapiens
Description: SANGER: Inhibition of human T84 cell growth in a cell viability assay.

BHY = assay: cells; format: functional, cell-based; settings: Homo sapiens
Description: SANGER: Inhibition of human BHY cell growth in a cell viability assay.

C3A = assay: cells; format: functional, cell-based; settings: Homo sapiens
Description: SANGER: Inhibition of human C3A cell growth in a cell viability assay.

CAL-27 = assay: cells; format: functional, cell-based; settings: Homo sapiens
Description: SANGER: Inhibition of human CAL-27 cell growth in a cell viability assay.

TGBC11TKB = assay: cells; format: functional, cell-based; settings: Homo sapiens
Description: SANGER: Inhibition of human TGBC11TKB cell growth in a cell viability assay.

U-251 = assay: cells; format: functional, cell-based; settings: Homo sapiens
Description: SANGER: Inhibition of human U251 cell growth in a cell viability assay.

YH-13 = assay: cells; format: functional, cell-based; settings: Homo sapiens
Description: SANGER: Inhibition of human YH-13 cell growth in a cell viability assay.

CAMA-1 = assay: cells; format: functional, cell-based; settings: Homo sapiens
Description: SANGER: Inhibition of human CAMA-1 cell growth in a cell viability assay.

CFPAC-1 = assay: cells; format: functional, cell-based; settings: Homo sapiens
Description: SANGER: Inhibition of human CFPAC-1 cell growth in a cell viability assay.

IPC-298 = assay: SANGER: Inhibition of human IPC-298 cell growth in a cell viability assay.; format: functional, cell-based
MFE-296 = assay: SANGER: Inhibition of human MFE-296 cell growth in a cell viability assay.; format: functional, cell-based
RT-4 = assay: SANGER: Inhibition of human RT4 cell growth in a cell viability assay.; format: functional, cell-based

## C=CC(=O)N1CCCC(Nc2nc(Nc3ccc(N(C)C(=O)CC)cc3)nc3[nH]cnc23)C1 (stereo not given)
EHEB
  pIC50: < 4.99
EW-12
  pIC50: < 4.99
IM-9
  pIC50: < 4.99
IMR-5; read-out: IC50
  pIC50: < 4.99
Kasumi 1
  pIC50: < 4.99
LC-1F
  pIC50: < 4.99
MDA-MB-134-VI
  pIC50: < 4.99
NCI-H128
  pIC50: < 4.99
NCI-H1882
  pIC50: < 4.99
NCI-H2107
  pIC50: < 4.99
SIMA
  pIC50: < 4.99
SR
  pIC50: < 4.99
U-698-M
  pIC50: < 4.99
CESS
  pIC50: < 4.99
CMK
  pIC50: < 4.99

## COc1ccc(N(C(=O)Oc2c(C)cccc2C)c2ccnc(Nc3ccc(N4CCN(C)CC4)cc3)n2)c(OC)c1
EHEB
  pIC50: < 5.29
EW-12
  pIC50: < 5.29
IM-9
  pIC50: < 5.29
IMR-5; read-out: IC50
  pIC50: < 5.29
Kasumi 1
  pIC50: < 5.29
LC-1F
  pIC50: < 5.29
MDA-MB-134-VI
  pIC50: < 5.29
NCI-H128
  pIC50: < 5.29
NCI-H1882
  pIC50: < 5.29
NCI-H2107
  pIC50: < 5.29
SIMA
  pIC50: < 5.29
SR
  pIC50: < 5.29
U-698-M
  pIC50: < 5.29
CESS
  pIC50: < 5.29
CMK
  pIC50: < 5.29

## Cc1cc(N2CCOCC2)cc2[nH]c(-c3c(NC[C@@H](O)c4cccc(Cl)c4)cc[nH]c3=O)nc12
EHEB
  pIC50: < 5.29
EW-12
  pIC50: < 5.29
IM-9
  pIC50: < 5.29
IMR-5; read-out: IC50
  pIC50: < 5.29
Kasumi 1
  pIC50: < 5.29
LC-1F
  pIC50: < 5.29
MDA-MB-134-VI
  pIC50: < 5.29
NCI-H128
  pIC50: < 5.29
NCI-H1882
  pIC50: 6.02
NCI-H2107
  pIC50: < 5.29
SIMA
  pIC50: < 5.29
SR
  pIC50: 5.69
U-698-M
  pIC50: < 5.29
CESS
  pIC50: < 5.29
CMK
  pIC50: 6.13

## NC(=O)c1cccc(-c2cc(Nc3ccc(OC(F)(F)F)cc3)ncn2)c1
EHEB
  pIC50: < 5.89
EW-12
  pIC50: < 5.89
IM-9
  pIC50: < 5.89
IMR-5; read-out: IC50
  pIC50: < 5.89
Kasumi 1
  pIC50: < 5.89
LC-1F
  pIC50: < 5.89
MDA-MB-134-VI
  pIC50: < 5.89
NCI-H128
  pIC50: < 5.89
NCI-H1882
  pIC50: < 5.89
NCI-H2107
  pIC50: < 5.89
SIMA
  pIC50: < 5.89
SR
  pIC50: < 5.89
U-698-M
  pIC50: < 5.89
CESS
  pIC50: < 5.89
CMK
  pIC50: < 5.89

## NC(=O)Nc1cc(-c2cccc(F)c2)sc1C(=O)N[C@H]1CCCNC1 [AZD-7762]
Capan-2
  pIC50: < 5.70
D-423MG
  pIC50: 6.48
EGI-1
  pIC50: 5.74
EPLC-272H
  pIC50: 6.66
GCT
  pIC50: 6.19
H-EMC-SS
  pIC50: 6.55
HCC70
  pIC50: 6.51
HN
  pIC50: 6.07
Kasumi 1
  pIC50: > 8.11
KNS-62
  pIC50: 6.25
KP-4
  pIC50: 5.84
LU-135
  pIC50: < 5.70
LoVo
  pIC50: 6.79
M059J
  pIC50: 5.97
MKN-45
  pIC50: 6.55
NB12
  pIC50: < 5.70
NCI-H1563
  pIC50: 6.33
NCI-H1623
  pIC50: < 5.70
NCI-H1666
  pIC50: < 5.70
NCI-H2030
  pIC50: 5.99
NCI-H2342
  pIC50: < 5.70
NCI-H28
  pIC50: 6.53
OC-314
  pIC50: 7.11
OE19
  pIC50: < 5.70
RERF-LC-MS
  pIC50: 6.17
RH-18
  pIC50: < 5.70
SK-HEP1
  pIC50: < 5.70
SNU-387
  pIC50: 6.61
SNU-449
  pIC50: < 5.70
SW1088
  pIC50: 6.04
T84
  pIC50: < 5.70
BHY
  pIC50: 6.16
C3A
  pIC50: < 5.70
CAL-27
  pIC50: < 5.70
TGBC11TKB
  pIC50: 6.95
U-251
  pIC50: < 5.70
YH-13
  pIC50: 6.80
CAMA-1
  pIC50: < 5.70
CFPAC-1
  pIC50: 6.14

## CN(NC(=O)CC(=O)NN(C)C(=S)c1ccccc1)C(=S)c1ccccc1 [ELESCLOMOL]
Capan-2
  pIC50: < 6.70
D-423MG
  pIC50: 7.92
EGI-1
  pIC50: 8.08
EPLC-272H
  pIC50: 7.54
GCT
  pIC50: 7.63
H-EMC-SS
  pIC50: 8.43
HCC70
  pIC50: 7.27
HN
  pIC50: 7.81
Kasumi 1
  pIC50: < 6.70
KNS-62
  pIC50: 8.02
KP-4
  pIC50: 8.66
LU-135
  pIC50: < 6.70
LoVo
  pIC50: 7.10
M059J
  pIC50: 7.69
MKN-45
  pIC50: 7.54
NB12
  pIC50: 7.32
NCI-H1563
  pIC50: 8.38
NCI-H1623
  pIC50: 6.75
NCI-H1666
  pIC50: < 6.70
NCI-H2030
  pIC50: 7.58
NCI-H2342
  pIC50: 7.36
NCI-H28
  pIC50: 7.86
OC-314
  pIC50: 7.48
OE19
  pIC50: < 6.70
RERF-LC-MS
  pIC50: 8.07
RH-18
  pIC50: 7.13
SK-HEP1
  pIC50: < 6.70
SNU-387
  pIC50: 8.02
SNU-449
  pIC50: 7.85
SW1088
  pIC50: 7.09
T84
  pIC50: < 6.70
BHY
  pIC50: 6.97
C3A
  pIC50: < 6.70
CAL-27
  pIC50: 7.48
TGBC11TKB
  pIC50: < 6.70
U-251
  pIC50: 8.01
YH-13
  pIC50: 7.62
CAMA-1
  pIC50: < 6.70
CFPAC-1
  pIC50: < 6.70

## Cc1ccc(NC(=O)c2ccc(CN3CCN(C)CC3)cc2)cc1Nc1nccc(-c2cccnc2)n1 [IMATINIB]
EHEB
  pIC50: < 5.70
EW-12
  pIC50: < 5.70
IM-9
  pIC50: < 5.70
IMR-5
  pIC50: < 5.70
Kasumi 1
  pIC50: < 5.70
LC-1F
  pIC50: < 5.70
MDA-MB-134-VI
  pIC50: < 5.70
NCI-H128
  pIC50: < 5.70
NCI-H1882
  pIC50: < 5.70
NCI-H2107
  pIC50: < 5.70
SIMA
  pIC50: < 5.70
SR
  pIC50: < 5.70
U-698-M
  pIC50: < 5.70
CESS
  pIC50: < 5.70
CMK
  pIC50: < 5.70

## CO[C@@H]1[C@H](N(C)C(=O)c2ccccc2)C[C@H]2O[C@]1(C)n1c3ccccc3c3c4c(c5c6ccccc6n2c5c31)C(=O)NC4 [MIDOSTAURIN]
EGI-1
  pIC50: < 6.29
IM-9
  pIC50: < 6.29
IPC-298
  pIC50: < 6.29
MFE-296
  pIC50: < 6.29
RT-4
  pIC50: < 6.29
SNU-387
  pIC50: 6.86
CESS
  pIC50: < 6.29
